Read-outs that look alike come from different tables or passages of the source.
Tests used:
[1] = test system: human liver microsomes (HLM); experiment: Metabolic stability of voriconazole N-oxide and hydroxyvoriconazole in HLM; assay type: in vitro ADME; settings: HLM 0.2 mg/mL
Description: An incubation without HLM served as a control (n = 1).

HLM, HIM and rhCYP = experiment: Pre-investigations of metabolite formation from VRC in HLM, HIM and rhCYP; assay type: in vitro ADME, human
Description: As an essential prerequisite, the linearity of metabolite formation with regard to reaction time and enzyme concentration, as well as the absence of substrate depletion (<10%), were investigated.

[2] = cited from earlier work
CYP2C19 [3] = biological target: T1, CYP2C19 (Homo sapiens, UniProt P33261); experiment: IC50 and IC50 shift on CYP2C19 marker reaction (S-mephenytoin 4-hydroxylation) in HLM; assay type: in vitro ADME; parameters: tissue Corning Inc; host or cells: pooled human liver microsomes (150 donors)
Description: (§1) Remaining activity (A, %) was calculated as the ratio of reaction velocities in the inhibited and non-inhibited incubations. IC50 and the steepness of the inhibition curve (H) were estimated by fitting the four-parameter inhibition model to the experimental data (Equation (9)). Maximum (Amax) and baseline activity (A0) were fixed to 100 and 0, respectively. […] (9) A,%=A0+Amax−A0/1+logCInhib/logIC50^H=100/1+logCInhib/logIC50^H […]
(§2) Supplementary Section S1. Marker reactions for CYP2C19, CYP2C9 and CYP3A4 […]
(§3) for CYP3A4 [1,2] were used to determine (i) intersystem extrapolation factors (ISEF), (ii) […]
(§4) Each probe substrate was incubated in the presence of each inhibitor. […]
(§5) were performed at concentrations of 0.2, 0.08 and 0.05 mg/mL HLM for CYP2C19, CYP2C9 and CYP3A4, respectively. IC50 and IC50 shift assays were performed at substrate […]
(§6) Reaction times were identical to those described

CYP2C9 [4] = biological target: T2, CYP2C9 (Homo sapiens, UniProt P11712); experiment: IC50 and IC50 shift on CYP2C9 marker reaction (diclofenac 4-hydroxylation) in HLM; assay type: in vitro ADME; parameters: tissue Corning Inc; host or cells: pooled human liver microsomes (150 donors)
Description: as §1
Supplementary Section S1. […]
Two samples were taken
from each incubation after 15 and 25 min for investigations on CYP2C19, after 5 and
10 min for CYP2C9 and after 7 and 12 min for CYP3A4, respectively. […]
CYP2C9 and CYP3A4, respectively. IC50 and IC50 shift assays were performed at substrate
as §6

CYP3A4 [5] = biological target: T3, CYP3A4 (Homo sapiens, UniProt P08684); experiment: IC50 and IC50 shift on CYP3A4 marker reaction (midazolam 1-hydroxylation) in HLM; assay type: in vitro ADME; parameters: tissue Corning Inc; host or cells: pooled human liver microsomes (150 donors); settings: for IC50 shift: human, human liver microsomes, pH 7.5, probe midazolam 1-hydroxylation (4.60 µM midazolam)
Description: as §1, §2, §3
Target sequence in this assay (P08684 2-503 limits assumed): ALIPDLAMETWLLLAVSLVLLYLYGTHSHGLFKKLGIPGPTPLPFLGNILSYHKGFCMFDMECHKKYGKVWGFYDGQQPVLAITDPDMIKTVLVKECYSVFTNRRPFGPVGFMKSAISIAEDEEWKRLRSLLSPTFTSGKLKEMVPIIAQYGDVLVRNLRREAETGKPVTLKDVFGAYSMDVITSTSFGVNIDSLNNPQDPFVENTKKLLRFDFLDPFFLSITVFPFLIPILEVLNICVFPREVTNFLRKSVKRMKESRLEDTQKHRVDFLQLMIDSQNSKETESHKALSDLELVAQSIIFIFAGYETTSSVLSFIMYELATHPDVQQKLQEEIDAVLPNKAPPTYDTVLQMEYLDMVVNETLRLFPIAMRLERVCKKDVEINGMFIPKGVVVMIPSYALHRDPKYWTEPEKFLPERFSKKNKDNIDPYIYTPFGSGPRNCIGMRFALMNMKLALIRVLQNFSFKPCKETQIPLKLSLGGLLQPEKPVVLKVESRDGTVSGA
Two samples were taken […]
from each incubation after 15 and 25 min for investigations on CYP2C19, after 5 and 10 min for CYP2C9 and after 7 and 12 min for CYP3A4, respectively. […]
CYP2C9 and CYP3A4, respectively. IC50 and IC50 shift assays were performed at substrate […]
as §6

CYP2C19 [6] = biological target: T1, CYP2C19; experiment: Type of reversible inhibition and Ki on CYP2C19 (S-mephenytoin 4-hydroxylation) in HLM; assay type: in vitro ADME; parameters: tissue Corning Inc; host or cells: pooled human liver microsomes (150 donors)
Description: (§7) Reaction velocities were investigated in function of the substrate ([S]) and inhibitor ([I]) concentration to determine KM, Vmax and Ki of the reaction. The obtained data were used to fit the three main models of reversible inhibition, i.e., competitive (Equation (10)), noncompetitive (Equation (11)) and uncompetitive (Equation (12)) using the “nls” function in R. The type of inhibition was determined according to the best model fit assessed with Akaike’s information criteria (AIC). […] (10) V=Vmax/1+KM/S1+I/Ki (11) V=Vmax/1+KM/S1+I/Ki (12) V=Vmax/1+KM/S+I/Ki […]
as §2, §3
(§8) (i) Experiments for the determination of Michaelis-Menten kinetics in HLM were performed at protein concentrations of 0.02, 0.04 and 0.05 mg/mL for the marker reactions of CYP2C19, CYP2C9 and CYP3A4 (n = 3 each), respectively. Two samples were taken from each incubation after 15 and 25 min for investigations on CYP2C19, after 5 and 10 min for CYP2C9 and after 7 and 12 min for CYP3A4, respectively. […]
(§9) were applied as substrate concentrations. […]
as §4, §5, §6

CYP2C9 [7] = biological target: T2, CYP2C9; experiment: Type of reversible inhibition and Ki on CYP2C9 (diclofenac 4-hydroxylation) in HLM; assay type: in vitro ADME; parameters: tissue Corning Inc; host or cells: pooled human liver microsomes (150 donors)
Description: as §7, §2, §3, §8, §9, §4, §5, §6

CYP3A4 [8] = biological target: T3, CYP3A4; experiment: Type of reversible inhibition and Ki on CYP3A4 (midazolam 1-hydroxylation) in HLM; assay type: in vitro ADME; parameters: tissue Corning Inc; host or cells: pooled human liver microsomes (150 donors); settings: CYP3A4
Description: as §7, §2, §3, §8, §9, §4, §5, §6
Target sequence in this assay (P08684 2-503 limits assumed): as above

[9] = biological target: T4, CYP3A4 in human liver microsomes (HLM) (Homo sapiens, UniProt P08684); experiment: Michaelis-Menten kinetics of midazolam 1-hydroxylation (CYP3A4 marker reaction) in HLM; assay type: in vitro ADME; settings: midazolam 1-hydroxylation; HLM
T4 construct: tissue Corning Inc; host or cells: pooled human liver microsomes (150 donors)
Description: (§10) Towards the Elucidation of the Pharmacokinetics of
(§11) Josefine Schulz 1, Antonia Thomas 1, Ayatallah Saleh 1,2, Gerd Mikus 1,3, Charlotte Kloft 1,† and Robin Michelet 1,*,† 1 Department of Clinical Pharmacy & Biochemistry, Institute of Pharmacy, Freie Universitaet Berlin, Kelchstraße 31, 12169 Berlin, Germany
(§12) 2 Graduate Research Training Program PharMetrX, 12169 Berlin/Potsdam, Germany 3 Department of Clinical Pharmacology and Pharmacoepidemiology, University Hospital Heidelberg, Im Neuenheimer Feld 410, 69120 Heidelberg, Germany
(§13) * Correspondence: robin.michelet@fu-berlin.de; Tel.: +49-30-838-50659
(§14) † These authors contributed equally to this work
as §2, §3, §8
(§15) were applied as substrate concentrations.
(§16) For investigations in rhCYP concentrations of 2.5 pmol/mL rhCYP2C19 (n = 3), […]
(§17) respectively. […]

CYP3A4 [10] = biological target: T3, CYP3A4; experiment: Michaelis-Menten kinetics of midazolam 1-hydroxylation by rhCYP3A4; assay type: in vitro ADME; parameters: purchased Corning Inc
Description: as §10, §11, §12, §13, §14, §2, §3, §8, §15, §16
Target sequence in this assay (P08684 whole entry): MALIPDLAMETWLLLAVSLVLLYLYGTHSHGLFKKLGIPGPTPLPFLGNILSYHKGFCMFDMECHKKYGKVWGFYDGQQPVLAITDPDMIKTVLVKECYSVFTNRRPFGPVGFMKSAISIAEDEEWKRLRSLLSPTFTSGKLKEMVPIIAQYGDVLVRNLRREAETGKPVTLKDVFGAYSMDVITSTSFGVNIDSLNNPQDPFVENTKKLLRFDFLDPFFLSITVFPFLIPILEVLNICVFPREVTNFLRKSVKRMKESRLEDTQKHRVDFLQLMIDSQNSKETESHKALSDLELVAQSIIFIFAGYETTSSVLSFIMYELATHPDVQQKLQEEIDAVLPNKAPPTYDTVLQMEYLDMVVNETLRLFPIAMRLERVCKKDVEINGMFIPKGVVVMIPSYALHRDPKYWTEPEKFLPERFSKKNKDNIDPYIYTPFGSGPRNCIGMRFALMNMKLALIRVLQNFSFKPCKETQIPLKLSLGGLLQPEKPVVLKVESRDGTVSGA
respectively. Sampling time points were identical to those in HLM as were substrate […]
concentration of 0.2 mg/mL for 15 and 25 min (n = 2). Each probe substrate was incubated in the presence of each inhibitor. […]
as §5
Reaction times were identical to those described […]

CYP3A4 [11] = biological target: T3, CYP3A4; experiment: Michaelis-Menten kinetics of midazolam 1-hydroxylation (CYP3A4 marker reaction) in HLM; assay type: in vitro ADME; parameters: tissue Corning Inc; host or cells: pooled human liver microsomes (150 donors); settings: human, human liver microsomes
Description: as §10, §11, §12, §13, §14, §2, §3, §8, §15, §16, §17
Target sequence in this assay (P08684 2-503 limits assumed): as the sequence (P08684 2-503 limits assumed) above

[12] = 30 min pre-incubation in the absence of NADPH
[13] = 30 min pre-incubation in the absence of NADPH, read-out: IC50 NADPH (−) (95% Confidence Interval)
[14] = 30 min pre-incubation in the presence of NADPH
[15] = 30 min pre-incubation in the presence of NADPH, read-out: IC50 NADPH (+) (95% Confidence Interval)
[16] = midazolam 1-hydroxylation, rhCYP3A4

T2 sequence (P11712 whole entry): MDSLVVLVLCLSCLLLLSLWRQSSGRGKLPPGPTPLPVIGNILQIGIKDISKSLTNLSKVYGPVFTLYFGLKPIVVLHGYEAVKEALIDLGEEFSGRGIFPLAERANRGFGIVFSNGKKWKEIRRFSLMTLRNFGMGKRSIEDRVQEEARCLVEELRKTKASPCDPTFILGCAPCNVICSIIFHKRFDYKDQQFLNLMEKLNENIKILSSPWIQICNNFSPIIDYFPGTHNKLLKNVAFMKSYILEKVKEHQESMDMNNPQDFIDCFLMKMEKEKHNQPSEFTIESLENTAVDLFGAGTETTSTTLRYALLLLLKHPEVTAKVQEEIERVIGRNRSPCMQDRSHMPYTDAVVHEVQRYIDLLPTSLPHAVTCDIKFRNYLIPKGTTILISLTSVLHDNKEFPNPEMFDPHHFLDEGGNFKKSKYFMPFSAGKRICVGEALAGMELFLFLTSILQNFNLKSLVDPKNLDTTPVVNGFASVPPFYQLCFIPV
T1 sequence (P33261 whole entry): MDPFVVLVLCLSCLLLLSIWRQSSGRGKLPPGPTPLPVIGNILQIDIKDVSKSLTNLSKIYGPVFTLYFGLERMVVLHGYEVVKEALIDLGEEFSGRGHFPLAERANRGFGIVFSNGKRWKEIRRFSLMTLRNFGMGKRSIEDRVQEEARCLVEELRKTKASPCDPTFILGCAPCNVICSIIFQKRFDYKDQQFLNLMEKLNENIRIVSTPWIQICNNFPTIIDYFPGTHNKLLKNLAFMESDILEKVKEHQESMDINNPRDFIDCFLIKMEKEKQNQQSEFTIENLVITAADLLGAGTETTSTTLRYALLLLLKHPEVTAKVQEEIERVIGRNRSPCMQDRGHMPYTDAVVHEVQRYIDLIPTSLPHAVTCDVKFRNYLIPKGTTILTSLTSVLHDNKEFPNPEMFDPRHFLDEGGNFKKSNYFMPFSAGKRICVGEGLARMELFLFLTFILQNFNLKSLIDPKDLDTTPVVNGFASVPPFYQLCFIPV
T4 sequence (P08684 2-503 limits assumed): as the sequence (P08684 2-503 limits assumed) above

C[C@@H](c1ncnc(O)c1F)[C@](O)(Cn1cncn1)c1ccc(F)cc1F [OH–VRC, hydroxyvoriconazole]
depletion over time when incubated directly with HLM ([1]; 5-60 min, 0.137 and 1.10 µM): no depletion | % compared to a control incubation without HLM after 60 min ([1]; high concentration (1.10 µM), single replicates): 94.7% | OH–VRC formation from VRC (HLM, HIM and rhCYP): not observed | plasma concentrations, fold lower than those of NO [2]: up to 30 fold | IC50 Shift NADPH (−) (CYP2C19 [3]; [12]): 1.17 | IC50 (CYP2C19 [3]; [13]): > 34.2 µM | IC50 Shift NADPH (+) (CYP2C19 [3]; [14]): 1.24 | IC50 (CYP2C19 [3]; [15]): 33.6 µM | time dependence of inhibition (CYP2C19 [3]; IC50 shift assay): Time-independent inhibition | IC50 (CYP2C19 [3]; without pre-incubation, […] S-mephenytoin, HLM, NO and OH–VRC estimates exceed applied concentrations (max 34.2 µM), read-out: IC50 (95% Confidence Interval)): > 34.2 µM | IC50 (CYP2C9 [4]; [13]): 3.68 µM | IC50 (CYP2C9 [4]; [15]): 3.64 µM | time dependence of inhibition (CYP2C9 [4]; IC50 shift assay): Time-independent inhibition | IC50 shift (CYP2C9 [4]; human, human liver microsomes, pH 7.5, probe diclofenac 4-hydroxylation (4.73 µM diclofenac), 30 min pre-incubation in the absence of NADPH): 0.997 | IC50 shift at 30 min (CYP2C9 [4]; human, human liver microsomes, pH 7.5, probe diclofenac (4-hydroxylation), 4.73 µM, 30 min pre-incubation in the presence of NADPH): 1.01 | IC50 (CYP2C9 [4]; without pre-incubation, 4.73 µM diclofenac, HLM, read-out: IC50 (95% Confidence Interval)): 3.67 µM | IC50 Shift NADPH (−) (CYP3A4 [5]; [12]): 1.76 | IC50 (CYP3A4 [5]; [13]): 0.579 µM | IC50 (CYP3A4 [5]; [15]): 1.57 µM | time dependence of inhibition (CYP3A4 [5]; IC50 shift assay): Time-independent inhibition | IC50 shift (CYP3A4 [5]; [12]): > 1.5 | IC50 shift (CYP3A4 [5]; [14]): 0.65 | IC50 (CYP3A4 [5]; without pre-incubation, 4.60 µM midazolam, HLM, read-out: IC50 (95% Confidence Interval)): 1.02 µM | Type of Reversible Inhibition (CYP2C19 [6]; CYP2C19, best model fit by AIC): competitive | inhibitory effect on CYP2C19 relative to VRC (fold lower, from Ki) (CYP2C19 [6]; compared to VRC): 6.1 fold | Ki (CYP2C19 [6]; read-out: Ki (95% CI)): 11.6 µM | Type of Reversible Inhibition (CYP2C9 [7]; CYP2C9, best model fit by AIC): competitive | Ki (CYP2C9 [7]; read-out: Ki (95% CI)): 2.8 µM | Type of Reversible Inhibition (CYP3A4 [8]; best model fit by AIC): noncompetitive | Ki (CYP3A4 [8]; midazolam 1-hydroxylation, HLM, read-out: Ki (95% CI)): 2.53 µM

Cc1ncc2n1-c1ccc(Cl)cc1C(c1ccccc1F)=NC2 [Midazolam, midazolam]
Vmax,HLM (95% CI) [9]: 559 pmol/min/mg | Km (CYP3A4 [10]; human, recombinant human CYP3A4 (rhCYP3A4)): 1.96 µM | CLint, rhCYP (CYP3A4 [10]; [16]): 0.850 µL/min/pmol | Vmax,rhCYP (95% CI) (CYP3A4 [10]; [16]): 1.67 pmol/min∙pmol | Km (CYP3A4 [11]): 4.45 µM | microsomal CLint (CYP3A4 [11]; pH 7.5, midazolam 1-hydroxylation, HLM): 126 µL/min/mg

Reference: article PMC8948939 (Pharmaceutics, 2022)
